Patent US12441718B2, “Selective angiotensin II compounds” (VICORE PHARMA AB, priority 2021, dated 2025)
Like-named read-outs stand apart in the source and are kept apart here.

Columns and labels:
[1] = biological target: T1, human recombinant AT2 receptor (Homo sapiens, UniProt P50052); test: Binding to AT2 receptor, radiometric scintillation assay (Eurofins ITEM26); conditions: ligand 125I CGP 42112A, * rows = mean of runs; for Ki: seven-point dose-response curve; for IC50: test compounds at 1, 10, 100 and 1000 nM, read-out: AT2 GraFit IC50
T1 construct: purchased Eurofins ITEM26 (protocol number)
T1 sequence (P50052 1-363): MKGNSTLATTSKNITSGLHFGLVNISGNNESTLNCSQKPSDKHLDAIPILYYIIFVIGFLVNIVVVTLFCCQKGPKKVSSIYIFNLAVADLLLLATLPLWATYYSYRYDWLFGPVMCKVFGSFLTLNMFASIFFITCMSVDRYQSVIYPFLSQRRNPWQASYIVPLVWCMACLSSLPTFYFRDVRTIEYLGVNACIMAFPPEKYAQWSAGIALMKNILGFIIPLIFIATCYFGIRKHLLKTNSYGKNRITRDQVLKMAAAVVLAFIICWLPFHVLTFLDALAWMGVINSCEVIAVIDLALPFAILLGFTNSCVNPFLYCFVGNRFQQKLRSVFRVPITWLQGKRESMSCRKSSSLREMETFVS

[2] = biological target: CYP3A4 (Homo sapiens, UniProt P08684); test: CYP inhibition in human liver microsomes (Eurofins ITEMG232), midazolam substrate; type: in vitro ADME; parameters: isoform-specific substrates incubated with human liver microsomes; tissue Eurofins ITEMG232 (protocol number); host or cells: human liver microsomes; conditions: human, probe midazolam, read-out: CYP3A4 midazolam Inh %
CYP3A4, sequence (P08684 whole entry, canonical isoform): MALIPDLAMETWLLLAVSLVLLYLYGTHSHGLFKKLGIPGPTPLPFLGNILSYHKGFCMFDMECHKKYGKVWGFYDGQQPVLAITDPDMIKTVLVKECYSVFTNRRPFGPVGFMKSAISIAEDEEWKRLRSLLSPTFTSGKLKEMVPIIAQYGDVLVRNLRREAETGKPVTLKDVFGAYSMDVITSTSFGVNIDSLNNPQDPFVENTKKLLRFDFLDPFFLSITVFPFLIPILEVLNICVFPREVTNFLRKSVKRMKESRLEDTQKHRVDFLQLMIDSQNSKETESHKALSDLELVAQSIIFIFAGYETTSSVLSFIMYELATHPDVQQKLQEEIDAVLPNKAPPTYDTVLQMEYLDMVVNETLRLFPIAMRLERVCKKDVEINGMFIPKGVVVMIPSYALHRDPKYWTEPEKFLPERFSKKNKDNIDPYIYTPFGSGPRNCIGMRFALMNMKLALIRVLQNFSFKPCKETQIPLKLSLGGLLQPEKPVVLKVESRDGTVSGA

[3] = biological target: T2, CYP2B6 (Homo sapiens, UniProt P20813); test: CYP inhibition in human liver microsomes (Eurofins ITEMG232); type: in vitro ADME; conditions: probe bupropion, substrate bupropion, read-out: CYP2B6 Inh %
T2 construct: isoform-specific substrates incubated with human liver microsomes; tissue Eurofins ITEMG232 (protocol number); host or cells: human liver microsomes
T2 sequence (P20813 1-491): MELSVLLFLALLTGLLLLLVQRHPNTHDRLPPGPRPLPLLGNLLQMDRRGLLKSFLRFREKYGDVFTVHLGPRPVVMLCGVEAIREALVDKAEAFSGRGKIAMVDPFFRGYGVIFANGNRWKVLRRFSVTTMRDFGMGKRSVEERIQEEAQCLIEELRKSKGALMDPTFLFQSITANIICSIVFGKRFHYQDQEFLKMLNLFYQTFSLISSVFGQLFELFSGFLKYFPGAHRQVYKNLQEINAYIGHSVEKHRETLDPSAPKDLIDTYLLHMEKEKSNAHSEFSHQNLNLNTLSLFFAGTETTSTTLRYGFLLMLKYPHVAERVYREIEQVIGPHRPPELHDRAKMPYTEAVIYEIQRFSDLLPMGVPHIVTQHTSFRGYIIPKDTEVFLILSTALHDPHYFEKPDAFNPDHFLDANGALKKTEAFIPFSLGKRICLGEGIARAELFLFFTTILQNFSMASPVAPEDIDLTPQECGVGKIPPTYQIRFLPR

[4] = biological target: T3, CYP2D6 (Homo sapiens, UniProt P10635); test: as above; type: in vitro ADME; conditions: probe dextromethorphan, substrate dextromethorphan, read-out: CYP2D6 Inh %
T3 construct: isoform-specific substrates incubated with human liver microsomes; tissue Eurofins ITEMG232 (protocol number); host or cells: human liver microsomes
T3 sequence (P10635 whole entry, canonical isoform): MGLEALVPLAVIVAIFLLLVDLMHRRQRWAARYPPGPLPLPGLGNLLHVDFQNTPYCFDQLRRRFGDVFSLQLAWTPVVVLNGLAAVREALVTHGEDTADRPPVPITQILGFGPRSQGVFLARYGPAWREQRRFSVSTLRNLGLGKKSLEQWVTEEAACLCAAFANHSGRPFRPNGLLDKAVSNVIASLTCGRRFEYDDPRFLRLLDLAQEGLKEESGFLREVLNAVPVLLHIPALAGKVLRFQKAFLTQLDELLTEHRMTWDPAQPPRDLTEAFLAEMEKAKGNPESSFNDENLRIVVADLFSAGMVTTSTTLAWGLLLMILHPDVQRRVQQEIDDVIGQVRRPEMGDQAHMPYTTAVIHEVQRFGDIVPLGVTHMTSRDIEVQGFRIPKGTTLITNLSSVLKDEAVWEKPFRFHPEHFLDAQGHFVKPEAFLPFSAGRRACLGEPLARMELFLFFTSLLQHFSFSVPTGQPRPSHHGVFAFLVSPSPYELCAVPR

[5] = biological target: T4, human recombinant AT1 receptor (Homo sapiens, UniProt P30556); test: Binding to AT1 receptor, radiometric scintillation assay (Eurofins ITEM24); conditions: test compounds at 1 and 10 μM, ligand 125I(sar1,Ile8)-AT-II; * rows = mean of runs
T4 construct: purchased Eurofins ITEM24 (protocol number)
T4 sequence (P30556 1-359): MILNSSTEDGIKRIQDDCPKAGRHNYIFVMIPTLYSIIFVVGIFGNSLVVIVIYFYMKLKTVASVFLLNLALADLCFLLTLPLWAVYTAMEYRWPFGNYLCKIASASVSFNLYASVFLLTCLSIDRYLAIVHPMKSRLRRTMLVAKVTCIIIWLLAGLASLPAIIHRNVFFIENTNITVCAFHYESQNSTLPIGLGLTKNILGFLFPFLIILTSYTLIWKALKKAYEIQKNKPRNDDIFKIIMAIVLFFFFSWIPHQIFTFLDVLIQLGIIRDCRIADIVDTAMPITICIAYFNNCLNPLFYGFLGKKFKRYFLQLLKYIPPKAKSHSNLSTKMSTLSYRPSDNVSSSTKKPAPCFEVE

[6] = test system: CYP3A4&5; test: in vitro; conditions: human, human liver microsomes, probe testosterone;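 further: Read-out is the metabolite generated from the probe substrate, quantified as HPLC-MS/MS peak area once incubation ends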
[7] = biological target: T5, CYP2C8 (Homo sapiens, UniProt P10632); test: CYP inhibition in human liver microsomes (Eurofins ITEMG232); type: in vitro ADME; conditions: human, probe paclitaxel and amodiaquine, substrate paclitaxel and amodiaquine, read-out: CYP2C8 Inh %
T5 construct: isoform-specific substrates incubated with human liver microsomes; tissue Eurofins ITEMG232 (protocol number); host or cells: human liver microsomes
T5 sequence (P10632 1-490): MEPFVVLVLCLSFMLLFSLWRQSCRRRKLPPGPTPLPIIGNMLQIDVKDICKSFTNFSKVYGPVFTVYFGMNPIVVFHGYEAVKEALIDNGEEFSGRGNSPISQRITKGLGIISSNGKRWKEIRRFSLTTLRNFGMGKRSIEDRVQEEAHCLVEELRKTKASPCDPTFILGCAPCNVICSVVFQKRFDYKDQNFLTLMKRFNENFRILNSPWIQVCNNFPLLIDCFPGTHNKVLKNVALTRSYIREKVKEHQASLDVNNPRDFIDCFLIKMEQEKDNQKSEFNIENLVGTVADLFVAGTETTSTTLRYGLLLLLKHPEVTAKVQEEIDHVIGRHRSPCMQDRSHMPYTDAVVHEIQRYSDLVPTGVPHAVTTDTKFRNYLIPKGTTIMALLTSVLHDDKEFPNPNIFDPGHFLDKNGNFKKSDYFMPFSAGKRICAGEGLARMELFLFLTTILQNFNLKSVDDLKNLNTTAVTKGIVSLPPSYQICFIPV

[8] = biological target: T6, CYP1A2 (Homo sapiens, UniProt P05177); test: in vitro; type: in vitro ADME; conditions: human, microsomes, human liver microsomes, substrate phenacetin, read-out: CYP1A2 Inh %
T6 construct: isoform-specific substrates incubated with human liver microsomes; tissue Eurofins ITEMG232 (protocol number); host or cells: human liver microsomes
T6 sequence (P05177 whole entry, canonical isoform): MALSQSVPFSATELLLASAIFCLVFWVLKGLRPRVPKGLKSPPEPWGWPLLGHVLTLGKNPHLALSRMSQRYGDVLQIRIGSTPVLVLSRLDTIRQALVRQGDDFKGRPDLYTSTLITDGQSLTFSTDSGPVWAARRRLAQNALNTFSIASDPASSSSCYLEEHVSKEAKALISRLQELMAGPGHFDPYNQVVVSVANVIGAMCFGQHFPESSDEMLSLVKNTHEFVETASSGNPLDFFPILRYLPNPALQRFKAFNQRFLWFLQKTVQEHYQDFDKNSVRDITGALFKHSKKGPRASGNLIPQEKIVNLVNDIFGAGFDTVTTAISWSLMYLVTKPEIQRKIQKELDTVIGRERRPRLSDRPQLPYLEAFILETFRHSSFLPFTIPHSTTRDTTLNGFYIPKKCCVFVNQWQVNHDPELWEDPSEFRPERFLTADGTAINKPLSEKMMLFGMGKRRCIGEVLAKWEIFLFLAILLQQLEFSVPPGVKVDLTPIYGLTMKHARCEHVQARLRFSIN
Procedure: The following substrates were used; CYP1A phenacetin, CYP2B36 bupropion, CYP2C8 paclitaxel and amodiaquine, CYP2C9 diclofenac, CYP2C19 omeprazole, CYP2D6 dextromethorphan, CYP3A midazolam and testosterone.
At the end of the incubation, the formation of metabolite was monitored by HPLC-MS/MS as the peak area response.

[9] = Metabolic stability in pooled human liver microsomes; type: in vitro ADME; conditions: human, pooled human liver microsomes, pooled human liver microsomes 0.5 mg/mL, 1 μM test compound, 37° C., * rows = mean of two runs
Procedure, shortened: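 Pooled human liver microsomes (0.5 mg/mL in PBS) preincubated ±1 mM NADPH at 37° C; test compound added at 10 min to 1 μM final. Samples at 0, 5, 15 and 60 min quenched in acetonitrile, parent quantified by LC-MS/MS against a standard curve (terfenadine internal standard). Initial metabolic rate calculated with and without NADPH.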

[10] = biological target: CYP2C9 (Homo sapiens, UniProt P11712); test: CYP inhibition in human liver microsomes (Eurofins ITEMG232); type: in vitro ADME; parameters: isoform-specific substrates incubated with human liver microsomes; tissue Eurofins ITEMG232 (protocol number); host or cells: human liver microsomes; conditions: human, probe diclofenac, substrate diclofenac, read-out: CYP2C9 Inh %
CYP2C9, sequence (P11712 whole entry, canonical isoform): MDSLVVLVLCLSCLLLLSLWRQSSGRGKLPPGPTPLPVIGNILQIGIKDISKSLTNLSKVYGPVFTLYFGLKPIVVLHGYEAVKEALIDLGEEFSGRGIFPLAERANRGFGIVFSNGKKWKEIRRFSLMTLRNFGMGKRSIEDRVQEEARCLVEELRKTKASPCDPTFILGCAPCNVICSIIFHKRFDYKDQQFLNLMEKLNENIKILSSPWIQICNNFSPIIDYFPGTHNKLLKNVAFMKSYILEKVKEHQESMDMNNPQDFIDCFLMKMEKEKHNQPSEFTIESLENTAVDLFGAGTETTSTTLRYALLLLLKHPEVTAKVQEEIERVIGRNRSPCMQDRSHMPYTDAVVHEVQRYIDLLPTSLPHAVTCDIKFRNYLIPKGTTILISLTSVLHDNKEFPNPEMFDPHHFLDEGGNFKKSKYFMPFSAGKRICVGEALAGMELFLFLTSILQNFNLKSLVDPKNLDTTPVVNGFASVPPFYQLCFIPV

[11] = biological target: T7, CYP2C19 (Homo sapiens, UniProt P33261); test: as above; type: in vitro ADME; conditions: human, probe omeprazole, substrate omeprazole, read-out: CYP2C19 Inh %
T7 construct: isoform-specific substrates incubated with human liver microsomes; tissue Eurofins ITEMG232 (protocol number); host or cells: human liver microsomes
T7 sequence (P33261 whole entry, canonical isoform): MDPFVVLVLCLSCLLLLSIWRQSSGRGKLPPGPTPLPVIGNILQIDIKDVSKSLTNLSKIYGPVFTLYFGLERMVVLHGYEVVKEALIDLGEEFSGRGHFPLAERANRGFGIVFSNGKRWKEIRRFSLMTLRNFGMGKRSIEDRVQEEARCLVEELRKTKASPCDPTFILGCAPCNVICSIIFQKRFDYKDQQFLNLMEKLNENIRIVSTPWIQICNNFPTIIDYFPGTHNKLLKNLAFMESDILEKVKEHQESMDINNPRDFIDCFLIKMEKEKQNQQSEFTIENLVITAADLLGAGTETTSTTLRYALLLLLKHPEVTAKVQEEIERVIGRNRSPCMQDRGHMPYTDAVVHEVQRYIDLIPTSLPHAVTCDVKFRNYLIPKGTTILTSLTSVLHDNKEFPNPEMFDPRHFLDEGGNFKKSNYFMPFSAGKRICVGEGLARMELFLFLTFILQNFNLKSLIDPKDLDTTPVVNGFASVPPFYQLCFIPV

[12] = with 1 mM NADPH, read-out: T1/2, + NaDPH
[13] = without NADPH, read-out: T1/2, no NaDPH

Structure (SMILES): CC(C)Cc1ccc(S(=O)(=O)Nc2ncc(F)cn2)c(-c2ccc(Cn3ccnc3C(C)(C)C)cc2)c1 [Example 3, 4′-((2-(tert-Butyl)-1H-imidazol-1-yl)methyl)-N-(5-fluoropyrimidin-2-yl)-5-isobutyl-[1,1′-biphenyl]-2-sulfonamide]
- Ki [1]: 2.4 nM
- IC50 [1]: 4.79 nM
- inhibition at 10 µM [2]: 49.8%
- inhibition at 10 µM [3]: -0.5%
- inhibition at 10 µM [4]: 17.2%
- IC50 [5]: 14300 nM
- inhibition at 10 µM [6]: 26.8%
- inhibition at 10 µM [7]: 89.2%
- inhibition at 10 µM [8]: -33.8%
- half-life at 1 μM [9, 12]: > 1 h
- half-life at 1 μM [9, 13]: > 1 h
- inhibition at 10 µM [10]: 4%
- inhibition at 10 µM [11]: 36.9%

Structure (SMILES): CC(C)Cc1ccc(S(=O)(=O)Nc2ncc(C(F)(F)F)cn2)c(-c2ccc(Cn3ccnc3C(C)(C)C)cc2)c1 [Example 4, 4′-((2-(tert-Butyl)-1H-imidazol-1-yl)methyl)-5-isobutyl-N-(5-(trifluoromethyl)pyrimidin-2-yl)-[1,1′-biphenyl]-2-sulfonamide]
- Ki [1]: 6.18 nM
- IC50 [1]: 12.4 nM
- inhibition at 10 µM [2]: 33.8%
- inhibition at 10 µM [3]: 36.2%
- inhibition at 10 µM [4]: 21.5%
- IC50 [5]: 6200 nM
- inhibition at 10 µM [6]: 1.5%
- inhibition at 10 µM [7]: 94.3%
- inhibition at 10 µM [8]: 19.5%
- half-life at 1 μM [9, 12]: > 1 h
- half-life at 1 μM [9, 13]: > 1 h
- inhibition at 10 µM [10]: 68.3%
- inhibition at 10 µM [11]: 62.3%

Structure (SMILES): CC(C)Cc1ccc(S(=O)(=O)Nc2ncccn2)c(-c2ccc(Cn3ccnc3C(C)(C)C)c(F)c2)c1 [Example 7, 4′-((2-(tert-Butyl)-1H-imidazol-1-yl)methyl)-3′-fluoro-5-isobutyl-N-(pyrimidin-2-yl)-[1,1′-biphenyl]-2-sulfonamide]
- Ki [1]: 1.27 nM
- IC50 [1]: 2.54 nM
- inhibition at 10 µM [2]: -12.5%
- inhibition at 10 µM [3]: 38.9%
- inhibition at 10 µM [4]: 15%
- IC50 [5]: 15000 nM
- inhibition at 10 µM [6]: 3.7%
- inhibition at 10 µM [7]: 78%
- inhibition at 10 µM [8]: 45.9%
- half-life at 1 μM [9, 12]: 0.9 h
- half-life at 1 μM [9, 13]: > 1 h
- inhibition at 10 µM [10]: 41.3%
- inhibition at 10 µM [11]: 41%

Structure (SMILES): CC(C)Cc1ccc(S(=O)(=O)Nc2ncc(F)cn2)c(-c2ccc(Cn3ccnc3C(C)(C)C)c(F)c2)c1 [Example 9, 4′-((2-(tert-Butyl)-1H-imidazol-1-yl)methyl)-3′-fluoro-N-(5-fluoropyrimidin-2-yl)-5-isobutyl-[1,1′-biphenyl]-2-sulfonamide]
- Ki [1]: 2.05 nM
- IC50 [1]: 4.11 nM
- inhibition at 10 µM [2]: 7.7%
- inhibition at 10 µM [3]: 30.4%
- inhibition at 10 µM [4]: 16.4%
- IC50 [5]: 5200 nM
- inhibition at 10 µM [6]: -14.9%
- inhibition at 10 µM [7]: 91.6%
- inhibition at 10 µM [8]: 48.6%
- half-life at 1 μM [9, 12]: > 1 h
- half-life at 1 μM [9, 13]: > 1 h
- inhibition at 10 µM [10]: 73.1%
- inhibition at 10 µM [11]: 35.8%

Structure (SMILES): CC(C)Cc1ccc(S(=O)(=O)Nc2ncc(C#N)cn2)c(-c2ccc(Cn3ccnc3C(C)(C)C)c(F)c2)c1 [Example 12, 4′-((2-(tert-Butyl)-1H-imidazol-1-yl)methyl)-N-(5-cyanopyrimidin-2-yl)-3′-fluoro-5-isobutyl-[1,1′-biphenyl]-2-sulfonamide]
- Ki [1]: 2.08 nM
- IC50 [1]: 4.17 nM
- inhibition at 10 µM [2]: 14.6%
- inhibition at 10 µM [3]: 35.8%
- inhibition at 10 µM [4]: 18.4%
- IC50 [5]: 1700 nM
- inhibition at 10 µM [6]: -41.8%
- inhibition at 10 µM [7]: 89.6%
- inhibition at 10 µM [8]: 16.7%
- half-life at 1 μM [9, 12]: 0.967 h
- half-life at 1 μM [9, 13]: > 1 h
- inhibition at 10 µM [10]: 82.3%
- inhibition at 10 µM [11]: 48.9%

Structure (SMILES): Cc1cnc(NS(=O)(=O)c2ccc(CC(C)C)cc2-c2ccc(Cn3ccnc3C(C)(C)C)cc2)nc1 [Example 20, 4′-((2-(tert-Butyl)-1H-imidazol-1-yl)methyl)-5-isobutyl-N-(5-methylpyrimidin-2-yl)-[1,1′-biphenyl]-2-sulfonamide]
- Ki [1]: 3.75 nM
- IC50 [1]: 7.5 nM
- inhibition at 10 µM [2]: 47.5%
- inhibition at 10 µM [3]: 12.5%
- inhibition at 10 µM [4]: 20.1%
- IC50 [5]: 22700 nM
- inhibition at 10 µM [6]: 28.1%
- inhibition at 10 µM [7]: 40.9%
- inhibition at 10 µM [8]: 10.7%
- half-life at 1 μM [9, 12]: 0.667 h
- half-life at 1 μM [9, 13]: > 1 h
- inhibition at 10 µM [10]: 69%
- inhibition at 10 µM [11]: 48%
